≈ marks a conversion by molar mass, not a printed value. Read-outs that look alike come from different tables or passages of the source.
What was measured:
Caco-2 = conditions: human
[1] = Solubility interactions of isoflavones in fasted simulated intestinal fluid (FaSSIF); format: physicochemical; conditions: for Biochanin A saturation concentration: fasted media, 37° C.
Procedure: Isoflavones: daidzein, genistein, formononetin and Biochanin A were obtained from Indofine. Simulated intestinal fluid buffer powder mimicking a fasted state (FaSSIF) was obtained from Biorelevant SIF media, Biorelevant.com, Switzerland.
To prepare accurate concentrations of isoflavones in microtubes, stock solutions of individual isoflavones were prepared at 1 mg/mL in methanol. The amount of isoflavone designated to be held constant was provided at a concentration that well exceeded (about 20×) the saturation concentration for that isoflavone. The appropriate amount of stock was transferred to each microtube and the material was dried down in a vacuum centrifuge.
The competing isoflavone was prepared at 0, 1, 5, 10, 50, 100, 200 μg/mL (FIGS. 11 and 12) and, in the case of formononetin, 400 μg/mL (FIG. 9).
In the case of formononetin competition with Biochanin A, the amount of formononetin was held constant at 50 μg in 1 ml buffer (saturation concentration for formononetin in FaSSIF is about 2 μg/mL). The competing Biochanin A was prepared at 0, 1, 5, 10, 50, 100 and 200 μg/mL (FIG. 10).
Each tube was then reconstituted with 1 mL of FaSSIF buffer, sonicated and allowed to equilibrate with occasional agitation for 24 hours at 37° C. This produced a solution that contained saturated isoflavone concentrations mimicking mammalian intestinal conditions.
At the end of 24 hours each tube containing isoflavones and FaSSIF buffer was briefly centrifuged at 5000 rpm in a microcentrifuge held at 37° C. (2 minutes). A portion of the supernatant (400 μL) was then immediately placed in a centrifugal filter unit (UltraFree-MC-GV […]) and the sample filtered by centrifugation (8000 rpm, 5 minutes, 37° C.). Upon filtration 200 μL filtrate was immediately placed in a microtube and 200 μL methanol added to ensure that the isoflavones remained in solution. The sample was mixed and 200 μL of the mixture was transferred to injection vials provided with 200 μL polypropylene injection inserts.
The samples were analyzed by HPLC with diode array detection at 260 nm using 20 μL injections.

[2] = system: human intestinal microflora; assay: Biotransformation by human intestinal bacteria (fecal microflora incubation); format: in vitro ADME; conditions: for isoflavone left in the incubation media: human, 120 h, 100 µM
Procedure: Fresh human fecal samples were collected from 4 volunteers. Five grams of each were pooled together and mixed well with 30 mL BHI culture medium. The fecal suspension was centrifuged at 200 g for 5 min and supernatant was decanted and centrifuged at 5,000 g for another 30 min. The resultant precipitate was re-suspended with 10 mL BHI medium to produce intestinal micro flora solution.
As the biotransformation of drugs by human intestinal bacteria was determined in a 5 mL incubation system containing 250 μL intestinal microflora solution, 50 μL stock solution in DMSO in BHI medium. […] Zero-minute incubations served as controls. Reactions were stopped by extracting samples with 15 ml of ethanol twice. The two ethanol extractions were combined, dried and re-suspended in 80% methanol for HPLC/MS analysis.

human hepatocytes = assay: Metabolism of isoflavone mixtures by human hepatocytes; format: in vitro ADME
Procedure: (§1) Human liver microsomes, intestinal microsomes, and hepatocytes of human female origin were purchased from XenoTech. All chemicals were purchased from Sigma-Aldrich. […] The final DMSO in buffer or media was kept at 0.1%. Protocols supplied by XenoTech Inc., the supplier, were used for glucuronidation with microsomal incubation, and hepatocyte incubation. Samples were analyzed using LC/MS.

plasma protein = assay: Plasma protein binding of absorbable aglycones; format: in vitro ADME
Excerpt: (§2) The protocol used by (Moon, Sagawa et al. 2006) was used for measuring plasma protein binding of the absorbable aglycones. Parameters have been used for PBPK simulation. Conjugates of Biochanin A, formononetin, Genistein, Daidzein and Equol are predominant components in plasma. The respective aglycones constitute less than 5% of the total concentration.

MC3T3 cells = assay: Osteoblast differentiation of MC3T3 cells (ALP/cell number); format: cell-based; conditions: 10 μM total isoflavones, 1 week
Procedure: Effects of isoflavones on the differentiation of osteoblast in MC3T3 cells followed Ge et al., 2006 and osteoclast differentiation in Raw264.7 cells followed Garcia Palacios et al., 2005. Cell numbers were measured with CellTag from Li-Cor Biosciences. Both activities of alkaline and acid phosphatase were measured with a plate reader at 405 nm. Isoflavones were first dissolved in DMSO and stock solutions were prepared at 10 mM and the final concentration of total isoflavones in test solution was 10 μM. Osteoblast and osteoclast differentiations were quantified by measuring activities of alkaline phosphatase (ALP) and acidic phosphatase (ACP). ALP is highly expressed by the mature osteoblasts and ACP is expressed by osteoclasts. Values of integrated intensity of fluorescence from […] staining serve as a correction factor for the difference in cell numbers. Therefore, ALP/cell number and ACP/cell number ratios are used to quantify osteoblast and osteoclast activities. Confluence MC3T3 cells were treated with 10 μM of isoflavones for 1 week and then the activity of alkaline phosphatase (ALP) was measured as an indicator of differentiation. […] To examine if there were any synergistic effects, two isoflavones were mixed in a 1:9 ratio and tested in the final concentration of 10 μM. […]

Raw264.7 cells = assay: Osteoclast differentiation in Raw264.7 cells (ACP/cell number); format: cell-based; conditions: 10 μM total isoflavones, MCSF and RANKL stimulated
Procedure: Effects of isoflavones on the differentiation of osteoblast in MC3T3 cells followed Ge et al., 2006 and osteoclast differentiation in Raw264.7 cells followed Garcia Palacios et al., 2005. Cell numbers were measured with CellTag from Li-Cor Biosciences. Both activities of alkaline and acid phosphatase were measured with a plate reader at 405 nm. Isoflavones were first dissolved in DMSO and stock solutions were prepared at 10 mM and the final concentration of total isoflavones in test solution was 10 μM. Osteoblast and osteoclast differentiations were quantified by measuring activities of alkaline phosphatase (ALP) and acidic phosphatase (ACP). ALP is highly expressed by the mature osteoblasts and ACP is expressed by osteoclasts. Values of integrated intensity of fluorescence from […] staining serve as a correction factor for the difference in cell numbers. Therefore, ALP/cell number and ACP/cell number ratios are used to quantify osteoblast and osteoclast activities. Raw246.7 cells were treated with MCSF and RANKL to stimulate the differentiation of osteoclasts. Isoflavones were added at the final concentration of 10 μM to examine their ability to inhibit differentiation.

[3] = system: human intestinal microsomes; assay: Metabolism of isoflavone mixtures by human intestinal microsomes; format: in vitro ADME
Procedure: as §1

in vitro = conditions: human, Caco-2
[4] = Plasma protein binding of absorbable aglycones; format: in vitro ADME
Excerpt: as §2

[5] = CaCo-2 permeability of isoflavones in a Red clover extract; conditions: human

| Structure (SMILES) | bio-transformation products formed by intestinal microflora [2] | osteoclast differentiation (Raw264.7 cells) | rate of metabolism by human hepatocytes (human hepatocytes; female, human) [ml/min/million cells] | fraction unbound [4] | metabolism by human intestinal microsomes ([3]; female, human) [ml/min/mg protein] | Papp [5] [×10⁻⁶ cm/s] | other results |
| --- | --- | --- | --- | --- | --- | --- | --- |
| COc1ccc(-c2coc3cc(O[C@@H]4O[C@H](CO)[C@@H](O)[C@H](O)[C@H]4O)cc(O)c3c2=O)cc1 [Biochanin A glucoside] | – | – | – | – | – | – | Mean Peff (Caco-2): 0.0164 ×10⁻⁶ cm/s |
| COc1ccc(-c2coc3cc(O)cc(O)c3c2=O)cc1 [Biochanin A] | dihydrobiochanin A, genistein, and dihydrogenistein | highest inhibition | – | – | – | – | Biochanin A saturation concentration ([1]; in the presence of 200 μg/mL daidzein): about 8.7 μg/mL; Biochanin A saturation concentration ([1]; in the presence of 200 μg/mL genistein): about 24.2 μg/mL; Biochanin A saturation concentration ([1]; in the presence of 400 μg/mL formononetin): about 4.5 μg/mL; Mean Peff (Caco-2): 10.8 ×10⁻⁶ cm/s; rate of metabolism by human hepatocytes (human hepatocytes): 8.88E-6 ml/min/million cells; Plasma protein binding (plasma protein): over 97%; ALP activity (osteoblast differentiation) (MC3T3 cells): highest ALP activity; metabolism by human intestinal microsomes [3]: 5.41E-4 ml/min/mg protein |
| O=c1c(-c2ccc(O)cc2)coc2cc(O)ccc12 [Daidzein] | – | stimulating osteoclast differentiation | 4.07E-6 | ~0.2 | 6.32E-5 | – | Papp (in vitro): 26.6 ×10⁻⁶ cm/s |
| O=c1c(-c2ccc(O)cc2)coc2cc(O[C@@H]3O[C@H](CO)[C@@H](O)[C@H](O)[C@H]3O)ccc12 [Daidzin] | – | – | – | – | – | 0.536 | – |
| Oc1ccc([C@H]2COc3cc(O)ccc3C2)cc1 [Equol] | most resistant to bio-transformation | – | 1.21E-5 | < 0.03 | 1.07E-4 | – | isoflavone left in the incubation media [2]: over 60% |
| COc1ccc(-c2coc3cc(O)ccc3c2=O)cc1 [Formononetin] | dihydroformononetin, dihydrodaidzein, daidzein, and equol | – | 3.45E-6 | < 0.03 | 7.31E-5 | 22 | solubility thermodynamic at 24 h ([1]; 37 °C, fassif, thermodynamic from solid): ~2 µg/mL (≈ 7.46 µM); isoflavone left in the incubation media [2]: over 20% |
| O=c1c(-c2ccc(O)cc2)coc2cc(O)cc(O)c12 [Genistein] | – | stimulating osteoclast differentiation | – | < 0.03 | – | 27.5 | bio-transformation products formed by intestinal microflora ([2]; 100 μM, anaerobic, 37° C., up to 120 h): dihydrogenistein; rate of metabolism by human hepatocytes (human hepatocytes; isoflavone mixtures, female origin): 5.14E-6 ml/min/million cells; metabolism by human intestinal microsomes ([3]; isoflavone mixtures, glucuronidation, female origin): 4.28E-4 ml/min/mg protein |
| O=c1c(-c2ccc(O)cc2)coc2cc(O[C@@H]3O[C@H](CO)[C@@H](O)[C@H](O)[C@H]3O)cc(O)c12 [Genistin] | – | – | – | – | – | 0.346 | – |
| COc1ccc(-c2coc3cc(O[C@@H]4O[C@H](CO)[C@@H](O)[C@H](O)[C@H]4O)ccc3c2=O)cc1 [Ononin] | – | – | – | – | – | 0.122 | – |
